Measured values reported in PubChem BioAssay (NCI).
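Assay format: 96-well plates, 48-hour exposure. At the GI50, growth is halved. TGI denotes the concentration required for complete inhibition of growth.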

Tests used:
Experiment in all cases: inhibition of tumour cell growth, NCI panel, 48 h
SF-539 CNS = test system: SF-539 CNS
CAKI-1 renal = test system: CAKI-1 renal
SW-620 colon = test system: SW-620 colon
EKVX NSCLC = test system: EKVX NSCLC
HL-60(TB) leukemia = test system: HL-60(TB) leukemia
A549 NSCLC = test system: A549 NSCLC
OVCAR-5 ovarian = test system: OVCAR-5 ovarian
RPMI-8226 leukemia = test system: RPMI-8226 leukemia
UO-31 renal = test system: UO-31 renal
OVCAR-4 ovarian = test system: OVCAR-4 ovarian
MOLT-4 leukemia = test system: MOLT-4 leukemia
OVCAR-3 ovarian = test system: OVCAR-3 ovarian
NCI-H23 lung = test system: NCI-H23 lung
SK-OV-3 ovarian = test system: SK-OV-3 ovarian
T-47D breast = test system: T-47D breast
HT29 colon = test system: HT29 colon
786-0 renal = test system: 786-0 renal
U251 CNS = test system: U251 CNS
IGROV1 ovarian = test system: IGROV1 ovarian
SK-MEL-5 melanoma = test system: SK-MEL-5 melanoma
DU-145 prostate = test system: DU-145 prostate
SK-MEL-2 melanoma = test system: SK-MEL-2 melanoma
MCF7 breast = test system: MCF7 breast
SF-268 CNS = test system: SF-268 CNS
KM12 colon = test system: KM12 colon
OVCAR-8 ovarian = test system: OVCAR-8 ovarian
TK-10 renal = test system: TK-10 renal
SNB-75 CNS = test system: SNB-75 CNS
M14 melanoma = test system: M14 melanoma
ACHN renal = test system: ACHN renal
LOX IMVI melanoma = test system: LOX IMVI melanoma
UACC-62 melanoma = test system: UACC-62 melanoma
HOP-62 NSCLC = test system: HOP-62 NSCLC
NCI/ADR-RES ovarian = test system: NCI/ADR-RES ovarian
SN12C renal = test system: SN12C renal
A498 renal = test system: A498 renal
CCRF-CEM leukemia = test system: CCRF-CEM leukemia
HOP-92 NSCLC = test system: HOP-92 NSCLC
SF-295 CNS = test system: SF-295 CNS
NCI-H460 lung = test system: NCI-H460 lung
NCI-H226 lung = test system: NCI-H226 lung
MDA-MB-435 = test system: MDA-MB-435
BT-549 breast = test system: BT-549 breast
HS 578T breast = test system: HS 578T breast
K-562 leukemia = test system: K-562 leukemia
HCT-15 colon = test system: HCT-15 colon
PC-3 prostate = test system: PC-3 prostate
SNB-19 CNS = test system: SNB-19 CNS
UACC-257 melanoma = test system: UACC-257 melanoma
HCT-116 colon = test system: HCT-116 colon
SK-MEL-28 melanoma = test system: SK-MEL-28 melanoma
RXF 393 renal = test system: RXF 393 renal
MALME-3M melanoma = test system: MALME-3M melanoma
MDA-MB-231 breast = test system: MDA-MB-231 breast

COc1cc2c3c(n(CCCNCCCN)c(=O)c2cc1OC)-c1cc2c(cc1C3=O)OCO2
GI50 (SF-539 CNS): 1.17 µM | TGI (SF-539 CNS): 10.6 µM | GI50 (CAKI-1 renal): 8.22 µM | TGI (CAKI-1 renal): 37.3 µM | GI50 (SW-620 colon): 3.29 µM | TGI (SW-620 colon): 16.4 µM | GI50 (EKVX NSCLC): 5.27 µM | TGI (EKVX NSCLC): 19.4 µM | GI50 (HL-60(TB) leukemia): 1.46 µM | TGI (HL-60(TB) leukemia): 5.28 µM | GI50 (A549 NSCLC): 6.11 µM | TGI (A549 NSCLC): 29.6 µM | GI50 (OVCAR-5 ovarian): 2.94 µM | TGI (OVCAR-5 ovarian): 12.6 µM | GI50 (RPMI-8226 leukemia): 2.44 µM | TGI (RPMI-8226 leukemia): 11.8 µM | GI50 (UO-31 renal): 15.4 µM | TGI (UO-31 renal): 38.5 µM | GI50 (OVCAR-4 ovarian): 2.83 µM | TGI (OVCAR-4 ovarian): 16.7 µM | GI50 (MOLT-4 leukemia): 0.244 µM | TGI (MOLT-4 leukemia): 0.688 µM | GI50 (OVCAR-3 ovarian): 3.08 µM | TGI (OVCAR-3 ovarian): 11.7 µM | GI50 (NCI-H23 lung): > 100 µM | TGI (NCI-H23 lung): > 100 µM | GI50 (SK-OV-3 ovarian): 11.2 µM | TGI (SK-OV-3 ovarian): 92.9 µM | GI50 (T-47D breast): 2.8 µM | TGI (T-47D breast): 14.7 µM | GI50 (HT29 colon): 1.7 µM | TGI (HT29 colon): 13.6 µM | GI50 (786-0 renal): 2.83 µM | TGI (786-0 renal): 14.2 µM | GI50 (U251 CNS): 1.25 µM | TGI (U251 CNS): 11.4 µM | GI50 (IGROV1 ovarian): 2.69 µM | TGI (IGROV1 ovarian): 18.9 µM | GI50 (SK-MEL-5 melanoma): 5.35 µM | TGI (SK-MEL-5 melanoma): 19 µM | GI50 (DU-145 prostate): 3.08 µM | TGI (DU-145 prostate): 13.4 µM | GI50 (SK-MEL-2 melanoma): 2.35 µM | TGI (SK-MEL-2 melanoma): 7.33 µM | GI50 (MCF7 breast): 0.504 µM | TGI (MCF7 breast): 5.08 µM | GI50 (SF-268 CNS): 1.98 µM | TGI (SF-268 CNS): 10.5 µM | GI50 (KM12 colon): 3.51 µM | TGI (KM12 colon): 16.9 µM | GI50 (OVCAR-8 ovarian): 1.27 µM | TGI (OVCAR-8 ovarian): 13 µM | GI50 (TK-10 renal): 9.74 µM | TGI (TK-10 renal): 27.9 µM | GI50 (SNB-75 CNS): 4.48 µM | TGI (SNB-75 CNS): 36.7 µM | GI50 (M14 melanoma): 4.65 µM | TGI (M14 melanoma): 16.7 µM | GI50 (ACHN renal): 3.14 µM | TGI (ACHN renal): 13.7 µM | GI50 (LOX IMVI melanoma): 0.659 µM | TGI (LOX IMVI melanoma): 3.42 µM | GI50 (UACC-62 melanoma): 3.41 µM | TGI (UACC-62 melanoma): 15.5 µM | GI50 (HOP-62 NSCLC): 1.6 µM | TGI (HOP-62 NSCLC): 13 µM | GI50 (NCI/ADR-RES ovarian): 22.9 µM | TGI (NCI/ADR-RES ovarian): 98.7 µM | GI50 (SN12C renal): 2.34 µM | TGI (SN12C renal): 13.3 µM | GI50 (A498 renal): 18 µM | TGI (A498 renal): 35.6 µM | GI50 (CCRF-CEM leukemia): 0.22 µM | TGI (CCRF-CEM leukemia): 15.8 µM | GI50 (HOP-92 NSCLC): 1.36 µM | TGI (HOP-92 NSCLC): 11.2 µM | GI50 (SF-295 CNS): 3.69 µM | TGI (SF-295 CNS): 16.7 µM | GI50 (NCI-H460 lung): 4.07 µM | TGI (NCI-H460 lung): 18 µM | GI50 (NCI-H226 lung): 2.21 µM | TGI (NCI-H226 lung): 8.45 µM | GI50 (MDA-MB-435): 2.53 µM | TGI (MDA-MB-435): 13.5 µM | GI50 (BT-549 breast): 6.49 µM | TGI (BT-549 breast): 20.6 µM | GI50 (HS 578T breast): 6.28 µM | TGI (HS 578T breast): 42.8 µM | GI50 (K-562 leukemia): 3.4 µM | TGI (K-562 leukemia): 10.4 µM | GI50 (HCT-15 colon): 25 µM | TGI (HCT-15 colon): > 100 µM | GI50 (PC-3 prostate): 3.53 µM | TGI (PC-3 prostate): 14.6 µM | GI50 (SNB-19 CNS): 1.52 µM | TGI (SNB-19 CNS): 11.6 µM | GI50 (UACC-257 melanoma): 7.31 µM | TGI (UACC-257 melanoma): 23 µM | GI50 (HCT-116 colon): 1.34 µM | TGI (HCT-116 colon): 5.32 µM | GI50 (SK-MEL-28 melanoma): 4.37 µM | TGI (SK-MEL-28 melanoma): 17.8 µM | GI50 (RXF 393 renal): 3.91 µM | TGI (RXF 393 renal): 16.8 µM | GI50 (MALME-3M melanoma): 2.21 µM | TGI (MALME-3M melanoma): 8.66 µM | GI50 (MDA-MB-231 breast): 2.93 µM | TGI (MDA-MB-231 breast): 12.6 µM
